Experimental data published in patent US20080319000A1, “Use of 3,1IB-Cis-Dihydrotetrabenazine for the Treatment of Symptoms of Huntingtons Disease” (CAMBRIDGE LABORATORIES (IRELAND) LIMITED, priority 2005, published 2008).

Experiments:
[1] = tested on: B6CBA-Tg(HDexon1)62Gpb/1J transgenic (R6/2) mice; assay: Locomotor activity test in transgenic mice model of Huntington's disease; assay type: in vivo; details: average recorded results, 5 mg/kg i.p.
Method: B6CBA-Tg(HDexon1)62Gpb/1J transgenic (R6/2) mice are transgenic for the 5-end of the human HD gene carrying (CAG) 115-(CAG) 150 repeat expansions. […] These symptoms appear between 6 and 8 weeks of age. […] The mice had access to commercial mouse chow (mouse/rate breeding, ref. 9341 Provimi Kliba, Switzerland) and tap water. […] The mice were placed in a transparent plastic box of floor dimensions 30×30 cm in a room with low light intensity (maximum 20 lux). Locomotor activity was determined during a 10 minute period using a video image analyzer (Videotrack, View Point, Lyon, France). The number, distance and average speed of ambulatory movements were measured. The mice were returned to their home cages after testing. Group 1: hemizygote Transgenic B6CBA-Tg(HDexon 1)62Gpb/1J mice treated with vehicle i.p. once a day for 4 days (from day 0 to day 3) Group 2: hemizygote Transgenic B6CBA-Tg(HDexon 1)62Gpb/1J mice treated with 5 mg/kg i.p. of test item once a day for 4 days (from day 0 to day 3) […] • Test item administration • Simplified Irwin test, 40 min after administration • Locomotor activity test, immediately after the simplified Irwin test Simplified Irwin scores were analysed using non-parametric Mann-Whitney's U test. Locomotor activity data were analysed using Dunnett's t-test. Rotarod scores were analysed using the non-parametric Mann-Whitney's U-test. Statistical analyses were performed using the software Statview SE^+graphics software, Brain Power.

[2] = target: Dopamine Transporter (DAT) (Homo sapiens, UniProt Q01959); assay: Dopamine Transporter (DAT) binding
Sequence of Dopamine Transporter (DAT) (Q01959 whole entry, species assumed): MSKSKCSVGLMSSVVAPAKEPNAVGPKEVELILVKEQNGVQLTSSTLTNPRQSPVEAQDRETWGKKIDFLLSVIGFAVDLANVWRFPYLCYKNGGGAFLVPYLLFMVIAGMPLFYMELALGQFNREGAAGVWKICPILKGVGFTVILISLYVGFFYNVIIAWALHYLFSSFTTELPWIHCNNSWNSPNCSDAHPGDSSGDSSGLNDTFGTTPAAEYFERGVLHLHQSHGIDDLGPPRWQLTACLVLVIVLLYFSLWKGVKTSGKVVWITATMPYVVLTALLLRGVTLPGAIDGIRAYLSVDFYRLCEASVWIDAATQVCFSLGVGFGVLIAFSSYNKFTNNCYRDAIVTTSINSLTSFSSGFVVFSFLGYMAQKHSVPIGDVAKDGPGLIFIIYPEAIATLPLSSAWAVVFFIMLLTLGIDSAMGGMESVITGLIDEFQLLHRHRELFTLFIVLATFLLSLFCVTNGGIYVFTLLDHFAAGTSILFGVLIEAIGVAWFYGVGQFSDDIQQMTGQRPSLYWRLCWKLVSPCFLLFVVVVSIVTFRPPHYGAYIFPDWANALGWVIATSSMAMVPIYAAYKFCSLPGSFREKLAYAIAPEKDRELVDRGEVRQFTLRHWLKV

Male Sprague-Dawley rats = assay: Spontaneous locomotor activity in rats (sedative properties); assay type: in vivo; details: for Inactivity Duration / Large movements Duration / Large movements Occurrence: rats, 20 min period, mean ± SEM n=12
Method: A study was carried out in rats to determine whether the dihydrotetrabenazine isomers of the invention have sedative properties. […] Male Sprague-Dawley rats, (Charles River Laboratories, Saint-Germain/L'Arbresle, France), weighing 200-250 g at the beginning of the study, were used for the studies. […] The rats were allowed to acclimatize to their conditions for at least five days before commencement of the study. The rats received food ([…], France, ref. 811002) and water (tap water in water bottle) ad libitum. Solutions of each test compound in corn oil were freshly prepared on the day of the experiment. Haloperidol was prepared in hydroxyethylcellulose, 0.5% in deionized water. Either the vehicle or the test compounds were administered as a single dose (0.3, 1, 3 and 10 mg/kg, 2 mL/kg i.p.). The reference compound haloperidol (1 mg/kg) was administered i.p. […] The animals were placed in plexiglass cages under a video camera in a room with low light intensity (maximum 50 lux). At forty five minutes and 3 hours after administration, locomotor activity was determined during 20 minute periods using a video image analyzer (Videotrack, View Point, France). […] The number and duration of ambulatory movements and duration of inactivity was measured. At the end of the locomotor activity measurement (45 minutes and 3 hours), palpebral closure and arousal were be scored as follows in the plexiglass cage: […] Image tracking was performed using a video camera placed above the plexiglass cage, recording overall locomotor activity. […] The results were expressed as the means ±SEMs of the 12 individual values. Statistical analyses were carried out using ANOVA (one way) and Dunnett's t-test and with the non parametric test of Kruskal-Wallis followed by a Mann & Whitney U-test for the sedation cotation. A p value of p<0.05 was taken as indicating significance. Group size n=12 Group 1: Reference, haloperidol (1 mg/kg i.p.) Group 2: Vehicle control group (2 ml/kg i.p.) Group 3: tetrabenazine (0.3 mg/kg i.p) Group 4: tetrabenazine (1 mg/kg i.p) Group 5: tetrabenazine (3 mg/kg i.p) Group 6: tetrabenazine (10 mg/kg i.p) Group 7: […]

[3] = target: T1, monoamine oxidase isoform B (Homo sapiens, UniProt P27338); assay: Monoamine oxidase B inhibition; assay type: biochemical
T1 sequence (P27338 1-520): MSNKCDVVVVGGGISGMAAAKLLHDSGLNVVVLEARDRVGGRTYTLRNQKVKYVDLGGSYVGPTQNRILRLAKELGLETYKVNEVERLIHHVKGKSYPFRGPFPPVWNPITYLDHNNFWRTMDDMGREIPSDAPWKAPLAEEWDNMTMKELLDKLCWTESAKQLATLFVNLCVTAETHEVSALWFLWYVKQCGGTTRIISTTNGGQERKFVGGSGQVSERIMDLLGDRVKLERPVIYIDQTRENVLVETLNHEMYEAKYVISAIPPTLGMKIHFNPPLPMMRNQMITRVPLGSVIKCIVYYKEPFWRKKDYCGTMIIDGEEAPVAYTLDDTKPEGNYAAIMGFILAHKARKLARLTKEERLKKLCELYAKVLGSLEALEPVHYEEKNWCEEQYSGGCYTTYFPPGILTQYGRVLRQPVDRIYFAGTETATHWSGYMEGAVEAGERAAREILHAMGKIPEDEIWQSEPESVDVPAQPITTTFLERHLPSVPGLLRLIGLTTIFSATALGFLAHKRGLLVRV

[4] = target: serotonin transporter protein SERT (Homo sapiens, UniProt P31645); assay: Serotonin transporter SERT inhibition; assay type: binding
Sequence of serotonin transporter protein SERT (P31645 whole entry, canonical isoform): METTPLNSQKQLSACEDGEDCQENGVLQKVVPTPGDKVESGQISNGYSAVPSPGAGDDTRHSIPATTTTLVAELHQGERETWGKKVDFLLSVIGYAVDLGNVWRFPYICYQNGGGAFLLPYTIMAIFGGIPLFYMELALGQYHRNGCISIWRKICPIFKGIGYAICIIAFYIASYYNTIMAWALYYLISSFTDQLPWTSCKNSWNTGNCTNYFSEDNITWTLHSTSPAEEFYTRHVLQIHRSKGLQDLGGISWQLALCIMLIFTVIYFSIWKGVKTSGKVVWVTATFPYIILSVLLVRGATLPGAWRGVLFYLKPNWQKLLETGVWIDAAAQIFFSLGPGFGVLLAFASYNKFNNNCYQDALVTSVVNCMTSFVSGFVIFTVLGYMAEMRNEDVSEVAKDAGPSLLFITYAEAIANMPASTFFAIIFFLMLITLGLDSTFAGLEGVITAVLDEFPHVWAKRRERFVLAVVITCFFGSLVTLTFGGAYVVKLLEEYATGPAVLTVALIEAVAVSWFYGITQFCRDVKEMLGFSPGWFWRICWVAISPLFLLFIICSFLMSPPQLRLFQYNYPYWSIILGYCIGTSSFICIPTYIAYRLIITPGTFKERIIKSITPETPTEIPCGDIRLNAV

[5] = target: 5-hydroxytryptamine isoform 1b (Homo sapiens, UniProt P28222); assay: 5-hydroxytryptamine 1b inhibition; assay type: binding
Sequence of 5-hydroxytryptamine isoform 1b (P28222 whole entry, canonical isoform): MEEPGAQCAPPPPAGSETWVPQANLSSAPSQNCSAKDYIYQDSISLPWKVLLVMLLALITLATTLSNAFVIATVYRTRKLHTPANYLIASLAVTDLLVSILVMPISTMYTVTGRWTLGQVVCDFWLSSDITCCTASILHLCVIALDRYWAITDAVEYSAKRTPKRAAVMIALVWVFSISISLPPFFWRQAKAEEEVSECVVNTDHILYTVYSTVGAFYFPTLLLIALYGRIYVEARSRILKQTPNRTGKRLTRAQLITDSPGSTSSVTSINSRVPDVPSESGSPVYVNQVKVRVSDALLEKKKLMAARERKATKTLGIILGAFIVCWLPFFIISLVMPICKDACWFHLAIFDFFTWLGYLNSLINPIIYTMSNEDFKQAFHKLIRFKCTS

[6] = DAY 0, 40 mn after administration
[7] = DAY 2, 40 mn after administration
[8] = 0.3 mg/kg i.p., 45 minutes after administration
[9] = 0.3 mg/kg i.p., 3 hours after administration
[10] = 1 mg/kg i.p., 45 minutes after administration
[11] = 1 mg/kg i.p., 3 hours after administration
[12] = 3 mg/kg i.p., 45 minutes after administration
[13] = 3 mg/kg i.p., 3 hours after administration
[14] = 10 mg/kg i.p., 45 minutes after administration
[15] = 10 mg/kg i.p., 3 hours after administration

COc1cc2c(cc1OC)[C@H]1C[C@H](O)[C@@H](CC(C)C)CN1CC2 (single isomer, unassigned) [Isomer B]
Inactivity Duration [1, 6]: 184 ± 31 s
Large movements Duration [1, 6]: 99 ± 13 s
Large movements Occurence (number) [1, 6]: 280 ± 41 number
Large movements Speed [1, 6]: 13.0 ± 0.5 cm/s
Inactivity Duration ([1]; DAY 0, before administration): 149 ± 27 s
Large movements Duration ([1]; DAY 0, before administration): 128 ± 16 s
Large movements Occurence (number) ([1]; DAY 0, before administration): 309 ± 37 number
Large movements Speed ([1]; DAY 0, before administration): 13.2 ± 0.5 cm/s
Inactivity Duration [1, 7]: 134 ± 18 s
Large movements Duration [1, 7]: 123 ± 14 s
Large movements Occurence (number) [1, 7]: 322 ± 40 number
Large movements Speed [1, 7]: 13.9 ± 0.7 cm/s
Inactivity Duration ([1]; DAY 24): 67 ± 42 s
Large movements Duration ([1]; DAY 24): 148 ± 34 s
Large movements Occurence (number) ([1]; DAY 24): 818 ± 168 number
Large movements Speed ([1]; DAY 24): 11.2 ± 0.9 cm/s
Dopamine Transporter (DAT) binding activity [2]: lack Dopamine Transporter (DAT) binding activity
sedative effect (Male Sprague-Dawley rats; locomotor studies carried out on rats): no sedative effects were observed
Inactivity Duration (Male Sprague-Dawley rats; [8]): 346.1 ± 36.9 s
Large movements Duration (Male Sprague-Dawley rats; [8]): 72.0 ± 9.6 s
Large movements Occurrence (Male Sprague-Dawley rats; [8]): 268 ± 36
Inactivity Duration (Male Sprague-Dawley rats; [9]): 566.4 ± 44.3 s
Large movements Duration (Male Sprague-Dawley rats; [9]): 28.9 ± 9.2 s
Large movements Occurrence (Male Sprague-Dawley rats; [9]): 101 ± 29
Inactivity Duration (Male Sprague-Dawley rats; [10]): 334.0 ± 23.2 s
Large movements Duration (Male Sprague-Dawley rats; [10]): 87.0 ± 7.6 s
Large movements Occurrence (Male Sprague-Dawley rats; [10]): 297 ± 22
Inactivity Duration (Male Sprague-Dawley rats; [11]): 525.8 ± 28.6 s
Large movements Duration (Male Sprague-Dawley rats; [11]): 34.5 ± 6.2 s
Large movements Occurrence (Male Sprague-Dawley rats; [11]): 125 ± 18
Inactivity Duration (Male Sprague-Dawley rats; [12]): 342.2 ± 33.3 s
Large movements Duration (Male Sprague-Dawley rats; [12]): 89.1 ± 12.4 s
Large movements Occurrence (Male Sprague-Dawley rats; [12]): 313 ± 38
Inactivity Duration (Male Sprague-Dawley rats; [13]): 530.5 ± 38.0 s
Large movements Duration (Male Sprague-Dawley rats; [13]): 31.1 ± 6.5 s
Large movements Occurrence (Male Sprague-Dawley rats; [13]): 113 ± 17
Inactivity Duration (Male Sprague-Dawley rats; [14]): 333.1 ± 26.9 s
Large movements Duration (Male Sprague-Dawley rats; [14]): 84.0 ± 11.2 s
Large movements Occurrence (Male Sprague-Dawley rats; [14]): 298 ± 37
Inactivity Duration (Male Sprague-Dawley rats; [15]): 515.0 ± 53.0 s
Large movements Duration (Male Sprague-Dawley rats; [15]): 30.9 ± 6.4 s
Large movements Occurrence (Male Sprague-Dawley rats; [15]): 120 ± 26
sedative effect (Male Sprague-Dawley rats; rats, 0.3, 1, 3 and 10 mg/kg i.p., 45 minutes and 3 hours after administration): no sedative effects at any time
inhibitory activity against monoamine oxidase isoform B [3]: no inhibitory activity
inhibition of the serotonin transporter protein SERT [4]: potent inhibitors
inhibitory activity against 5-hydroxytryptamine isoform 1b [5]: no inhibitory activity
